What was measured:
Experiment in all cases: greenhouse experiment, post-emergence treatment
Assay type in all cases: in vivo
Conditions in all cases: application rate of 16 g/ha, post-emergence method; scale from 0 to 100
Chenopodium album = test system: Chenopodium album
Description: (§1) The seeds of the test plants were sown separately for each species. For the post-emergence treatment, the test plants were first grown to a height of 3 to 15 cm, depending on the plant habit, and only then treated with the active ingredients which had been suspended or emulsified in water. For this purpose, the test plants were either sown directly and grown in the same containers, or they were first grown separately as seedlings and transplanted into the test containers a few days prior to treatment. Depending on the species, the plants were kept at 10-25° C. or 20-35° C., respectively. The test period extended over 2 to 4 weeks. During this time, the plants were tended, and their response to the individual treatments was evaluated. Evaluation was carried out using a scale from 0 to 100. 100 means no emergence of the plants, or complete destruction of at least the aerial moieties, and 0 means no damage, or normal course of growth. A good herbicidal activity is given at values of at least 70 and a very good herbicidal activity is given at values of at least 85. The plants used in the greenhouse experiments were of the following species: [table]

Setaria viridis = test system: Setaria viridis
Description: as §1

Amaranthus retroflexus = test system: Amaranthus retroflexus
Description: as §1

Compound | herbicidal activity against Chenopodium album (Chenopodium album) | herbicidal activity against Setaria viridis (Setaria viridis) | herbicidal activity against Amaranthus retroflexus (Amaranthus retroflexus)
COC(=O)C(OC)Oc1cc(-c2ncc(Cl)cc2Cl)ccc1Cl (racemic) [Example 6] | good herbicidal activity (A good herbicidal activity is given at values of at least 70) | very good herbicidal activity (a very good herbicidal activity is given at values of at least 85) | very good herbicidal activity (a very good herbicidal activity is given at values of at least 85)
COc1ccc(CNC(=O)C(OC)Oc2cc(-c3ncc(C(F)(F)F)cc3Cl)c(F)cc2Cl)cc1 (stereo not drawn) [Example 44] | very good herbicidal activity (a very good herbicidal activity is given at values of at least 85) | good herbicidal activity (A good herbicidal activity is given at values of at least 70) | very good herbicidal activity (a very good herbicidal activity is given at values of at least 85)
